Test results as given in patent publication US11759462B2, “Spirocyclic compounds as tryptophan hydroxylase inhibitors” (priority 2013, dated 2023).
Like-named read-outs stand apart in the source and are kept apart here.

Molecular target: T1, Recombinant human TPH1 (MBP tagged) (Homo sapiens, UniProt P17752)
T1 construct: cloning full length human TPH1 cDNA in to a bacterial pMAL-c5E expression vector; made in house; host or cells: E. coli BL21 (DE3)
T1 sequence (P17752 1-444): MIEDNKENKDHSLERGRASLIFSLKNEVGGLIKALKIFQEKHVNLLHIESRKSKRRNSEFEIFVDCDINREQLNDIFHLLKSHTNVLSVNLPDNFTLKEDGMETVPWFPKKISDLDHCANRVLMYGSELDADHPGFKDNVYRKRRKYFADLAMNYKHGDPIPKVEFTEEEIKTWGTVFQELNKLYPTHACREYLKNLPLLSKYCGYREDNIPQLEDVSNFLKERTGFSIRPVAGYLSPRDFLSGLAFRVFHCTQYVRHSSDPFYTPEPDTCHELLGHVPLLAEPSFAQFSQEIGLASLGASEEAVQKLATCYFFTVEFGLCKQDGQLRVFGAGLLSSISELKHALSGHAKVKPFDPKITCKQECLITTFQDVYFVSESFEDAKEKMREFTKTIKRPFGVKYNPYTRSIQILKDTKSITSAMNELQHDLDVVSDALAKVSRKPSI
Assay: TPH1 in vitro inhibition assay (kinetic fluorescence)
Assay type: biochemical
Method in brief: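 Final mix: 15 nM MBP-TPH1, 30 μM Trp, 36 μM 6-methyltetrahydropterin, 25 μM ferrous ammonium sulfate, 50 mM MES pH 7.1, 1% DMSO, room temperature.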

[1] = read-out: TPH1 Range (TPH1 inhibition IC50)
[2] = TPH1 Range (TPH1 inhibition IC50)

Row | IC50 [1] | Molecule | IC50 [2]
1 | < 50 nM | Nc1nc(O[C@H](c2ccc(-c3ccc4ccccc4c3)cc2)C(F)(F)F)cc(N2CCC3(CC2)CN[C@H](C(=O)O)C3)n1 [Example 55m, (S)-8-(2-amino-6-((R)-2,2,2-trifluoro-1-(4-(naphthalen-2-yl)phenyl)ethoxy)pyrimidin-4-yl)-2,8-diazaspiro[4.5]decane-3-carboxylic acid] | 
2 | 50 to 300 nM | CN(C)Cc1ccc(-c2ccc([C@@H](Oc3cc(N4CCC5(CC4)CN[C@H](C(=O)O)C5)nc(N)n3)C(F)(F)F)cc2)cc1 [Example 55bf, (S)-8-(2-amino-6-((R)-1-(4′-((dimethylamino)methyl)-[1,1′-biphenyl]-4-yl)-2,2,2-trifluoroethoxy)pyrimidin-4-yl)-2,8-diazaspiro[4.5]decane-3-carboxylic acid] | 
3 | < 50 nM | Nc1nc(O[C@H](c2ccc(-c3ccc4nccnc4c3)cc2)C(F)(F)F)cc(N2CCC3(CC2)CN[C@H](C(=O)O)C3)n1 [Example 55bi, (S)-8-(2-amino-6-((R)-2,2,2-trifluoro-1-(4-(quinoxalin-6-yl)phenyl)ethoxy)pyrimidin-4-yl)-2,8-diazaspiro[4.5]decane-3-carboxylic acid] | 
4 | 50 to 300 nM | Nc1nc(O[C@H](c2ccc(-c3ccc4ncncc4c3)cc2)C(F)(F)F)cc(N2CCC3(CC2)CN[C@H](C(=O)O)C3)n1 [Example 55bk, (S)-8-(2-amino-6-((R)-2,2,2-trifluoro-1-(4-(quinazolin-6-yl)phenyl)ethoxy)pyrimidin-4-yl)-2,8-diazaspiro[4.5]decane-3-carboxylic acid] | 
5 | < 50 nM | CCOc1ccc(-c2ccc([C@@H](Oc3cc(N4CCC5(CC4)CN[C@H](C(=O)O)C5)nc(N)n3)C(F)(F)F)cc2)cc1 [Example 55do, (S)-8-(2-amino-6-((R)-1-(4′-ethoxy-[1,1′-biphenyl]-4-yl)-2,2,2-trifluoroethoxy)pyrimidin-4-yl)-2,8-diazaspiro[4.5]decane-3-carboxylic acid] | 
6 | 50 to 300 nM | Nc1nc(O[C@H](c2ccc(-c3ccccc3)cc2)C(F)(F)F)cc(N2CCC3(CC2)CN[C@H](C(=O)O)C3)n1 [Example 55a, (S)-8-(6-((R)-1-([1,1′-biphenyl]-4-yl)-2,2,2-trifluoroethoxy)-2-aminopyrimidin-4-yl)-2,8-diazaspiro[4.5]decane-3-carboxylic acid] | 
7 | 50 to 300 nM | CCc1ccc(-c2ccc([C@@H](Oc3cc(N4CCC5(CC4)CN[C@H](C(=O)O)C5)nc(N)n3)C(F)(F)F)cc2)cc1 [Example 55bz, (S)-8-(2-amino-6-((R)-1-(4′-ethyl-[1,1′-biphenyl]-4-yl)-2,2,2-trifluoroethoxy)pyrimidin-4-yl)-2,8-diazaspiro[4.5]decane-3-carboxylic acid] | 

The remaining lines, values behind:

Row | Molecule | IC50 [1] | IC50 [2]
8 | CNS(=O)(=O)c1cccc(-c2cc(Cl)ccc2[C@@H](Oc2cc(N3CCC4(CC3)CN[C@H](C(=O)O)C4)nc(N)n2)C(F)(F)F)c1 [Example 34ck, (S)-8-(2-amino-6-((R)-1-(5-chloro-3′-(N-methylsulfamoyl)-[1,1′-biphenyl]-2-yl)-2,2,2-trifluoroethoxy)pyrimidin-4-yl)-2,8-diazaspiro[4.5]decane-3-carboxylic acid] | 50 to 300 nM | 
9 | CCOC(=O)c1cccc(-c2ccc([C@@H](Oc3cc(N4CCC5(CC4)CN[C@H](C(=O)O)C5)nc(C)n3)C(F)(F)F)c(-n3ccc(C)n3)c2)c1 [Example 29e, (S)-8-(6-((R)-1-(3′-(ethoxycarbonyl)-3-(3-methyl-1H-pyrazol-1-yl)-[1,1′-biphenyl]-4-yl)-2,2,2-trifluoroethoxy)-2-methylpyrimidin-4-yl)-2,8-diazaspiro[4.5]decane-3-carboxylic acid] | 50 to 300 nM | 
10 | Cc1ccn(-c2cc(-c3ccc(C)c(C)c3)ccc2[C@@H](Oc2cc(N3CCC4(CC3)CN[C@H](C(=O)O)C4)nc(C)n2)C(F)(F)F)n1 [Example 29d, (S)-8-(6-((R)-1-(3′,4′-dimethyl-3-(3-methyl-1H-pyrazol-1-yl)-[1,1′-biphenyl]-4-yl)-2,2,2-trifluoroethoxy)-2-methylpyrimidin-4-yl)-2,8-diazaspiro[4.5]decane-3-carboxylic acid] | < 50 nM | 
11 | CC(C)c1cc(-c2cc(Cl)ccc2[C@@H](Oc2cc(N3CCC4(CC3)CN[C@H](C(=O)O)C4)nc(N)n2)C(F)(F)F)ccn1 [Example 34bu, (S)-8-(2-amino-6-((R)-1-(4-chloro-2-(2-isopropylpyridin-4-yl)phenyl)-2,2,2-trifluoroethoxy)pyrimidin-4-yl)-2,8-diazaspiro[4.5]decane-3-carboxylic acid] | 50 to 300 nM | 
12 | Cc1cc(C)c(-c2ccc([C@@H](Oc3cc(N4CCC5(CC4)CN[C@H](C(=O)O)C5)nc(C)n3)C(F)(F)F)c(-n3ccc(C)n3)c2)c(C)c1 [Example 29n, (S)-8-(2-methyl-6-((R)-2,2,2-trifluoro-1-(2′,4′,6′-trimethyl-3-(3-methyl-1H-pyrazol-1-yl)-[1,1′-biphenyl]-4-yl)ethoxy)pyrimidin-4-yl)-2,8-diazaspiro[4.5]decane-3-carboxylic acid] | 50 to 300 nM | 
13 | Cc1ccn(-c2cc(-c3ccc(OC(F)(F)F)c(C)c3)ccc2[C@@H](Oc2cc(N3CCC4(CC3)CN[C@H](C(=O)O)C4)nc(N)n2)C(F)(F)F)n1 [Example 1bq, (S)-8-(2-amino-6-((R)-2,2,2-trifluoro-1-(3′-methyl-3-(3-methyl-1H-pyrazol-1-yl)-4′-(trifluoromethoxy)-[1,1′-biphenyl]-4-yl)ethoxy)pyrimidin-4-yl)-2,8-diazaspiro[4.5]decane-3-carboxylic acid] | < 50 nM | 
14 | Cc1cc(-c2cc(Cl)ccc2[C@@H](Oc2cc(N3CCC4(CC3)CN[C@H](C(=O)O)C4)nc(N)n2)C(F)(F)F)ccc1Cl [Example 34at, (S)-8-(2-amino-6-((R)-1-(4′,5-dichloro-3′-methyl-[1,1′-biphenyl]-2-yl)-2,2,2-trifluoroethoxy)pyrimidin-4-yl)-2,8-diazaspiro[4.5]decane-3-carboxylic acid] |  | 50 to 300 nM
15 | Cc1ccn(-c2ccc(-c3cccc(C(=O)O)c3)cc2[C@@H](Oc2cc(N3CCC4(CC3)CN[C@H](C(=O)O)C4)nc(N)n2)C(F)(F)F)n1 [Example 19f, (S)-8-(2-amino-6-((R)-1-(3′-carboxy-4-(3-methyl-1H-pyrazol-1-yl)-[1,1′-biphenyl]-3-yl)-2,2,2-trifluoroethoxy)pyrimidin-4-yl)-2,8-diazaspiro[4.5] decane-3-carboxylic acid] | < 50 nM | 
16 | Cc1ccn(-c2cc(C#N)ccc2[C@@H](Oc2cc(N3CCC4(CC3)CN[C@H](C(=O)O)C4)nc(N)n2)C(F)(F)F)n1 [Example 14, (S)-8-(2-amino-6-((R)-1-(4-cyano-2-(3-methyl-H-pyrazol-1-yl)phenyl)-2,2,2-trifluoroethoxy)pyrimidin-4-yl)-2,8-diazaspiro[4.5]decane-3-carboxylic acid] | < 50 nM | 
17 | Cc1ccn(-c2cc(-c3cccc(C(N)=O)c3)ccc2[C@@H](Oc2cc(N3CCC4(CC3)CN[C@H](C(=O)O)C4)nc(N)n2)C(F)(F)F)n1 [Example 1be, (S)-8-(2-amino-6-((R)-1-(3′-carbamoyl-3-(3-methyl-1H-pyrazol-1-yl)-[1,1′-biphenyl]-4-yl)-2,2,2-trifluoroethoxy)pyrimidin-4-yl)-2,8-diazaspiro[4.5]decane-3-carboxylic acid] | 50 to 300 nM | 
18 | Cc1ccn(-c2cc(-c3ccc4cccnc4c3)ccc2[C@@H](Oc2cc(N3CCC4(CC3)CN[C@H](C(=O)O)C4)nc(N)n2)C(F)(F)F)n1 [Example 1z, (S)-8-(2-amino-6-((R)-2,2,2-trifluoro-1-(2-(3-methyl-1H-pyrazol-1-yl)-4-(quinolin-7-yl)phenyl)ethoxy)pyrimidin-4-yl)-2,8-diazaspiro[4.5]decane-3-carboxylic acid] | < 50 nM | 
19 | Cc1ccn(-c2cc(-c3cc(C)c(Cl)c(C)c3)ccc2[C@@H](Oc2cc(N3CCC4(CC3)CN[C@H](C(=O)O)C4)nc(N)n2)C(F)(F)F)n1 [Example 1bh, (S)-8-(2-amino-6-((R)-1-(4′-chloro-3′,5′-dimethyl-3-(3-methyl-1H-pyrazol-1-yl)-[1,1′-biphenyl]-4-yl)-2,2,2-trifluoroethoxy)pyrimidin-4-yl)-2,8-diazaspiro[4.5]decane-3-carboxylic acid] | < 50 nM | 
20 | Nc1nc(O[C@@H](c2ccc(Cl)cc2-c2ccccc2)C(F)(F)F)cc(N2CCC3(CC2)CN[C@H](C(=O)O)C3)n1 [Example 54j, (S)-8-(2-amino-6-((S)-1-(5-chloro-[1,1′-biphenyl]-2-yl)-2,2,2-trifluoroethoxy)pyrimidin-4-yl)-2,8-diazaspiro[4.5]decane-3-carboxylic acid] |  | 50 to 300 nM
21 | Nc1nc(NCc2ccc(-c3ccccc3)cc2)nc(N2CCC3(CC2)CNC(C(=O)O)C3)n1 (centres unmarked) [Example 39b, 8-(4-(([1,1′-biphenyl]-4-ylmethyl)amino)-6-amino-1,3,5-triazin-2-yl)-2,8-diazaspiro[4.5]decane-3-carboxylic acid] | 3000 to 10000 nM | 
22 | (S)-8-(2-amino-6-((R)-2,2,2-trifluoro-1-(3-(3- methyl-1H-pyrazol-1-yl)-2′,3′,4′,5′-tetrahydro- [1,1′-biphenyl]-4-yl)ethoxy)pyrimidin-4-yl)- 2,8-diazaspiro[4.5]decane-3-carboxylic acid [Example 1v] | < 50 nM | 
23 | Cc1ccn(-c2ccccc2[C@@H](Oc2ccnc(N3CCC4(CC3)CN[C@H](C(=O)O)C4)c2)C(F)(F)F)n1 [Example 44, (S)-8-(4-((R)-2,2,2-trifluoro-1-(2-(3-methyl-1H-pyrazol-1-yl)phenyl)ethoxy)pyridin-2-yl)-2,8-diazaspiro[4.5]decane-3-carboxylic acid] | 300 to 3000 nM | 
